Measured values from patent US20220023232A1, “USE OF CANNABINOIDS IN THE TREATMENT OF EPILEPSY” (GW Research Limited, priority 2019, published 2022).

How the values were obtained:
seizures [1] = conditions: 200 mg/day, four adult patients; cited from earlier work
seizures [2] = conditions: 200 mg/day, twelve institutionalized adult patients, open label; cited from earlier work
seizures [3] = conditions: mice, after pro-convulsant drugs or an electric current; cited from earlier work
[4] = Solubility of drug substance in water; type: physicochemical
From the text: Sesame oil was selected as an excipient to solubilize the drug substance.

[5] = system: secondary generalized epilepsy; conditions: eight adult patients; cited from earlier work
[6] = system: epilepsy associated with KCNT1 mutation (EIMFS); test: Expanded access case study of highly purified CBD in a child with KCNT1 mutation associated EIMFS; type: in vivo, human
Description: The child was […] when they were enrolled in an expanded access compassionate use program for CBD. The patient was diagnosed with Epilepsy of Infancy with Migrating Focal Seizures (EIMFS).
This subject was treated with a highly purified extract of cannabidiol (CBD) obtained from a cannabis plant. Seizure frequency and severity was documented in seizure diaries at baseline (4-week pre-treatment period) and over the treatment period. At each visit quality of life changes, including mood, behaviour, and cognitive function were recorded in addition to global impression of change using a numerical scale.
The patient first presented with seizures on the first day of life. They experienced on average 14 seizures per day. The types of seizure that occurred were motor arrest; asymmetric tonic; clonic extremity movements, irregular breathing and cyanosis.
The patient had tried and failed seven different anti-epileptic drugs and at the time of treatment and continued on the ketogenic diet however their seizures remained refractory.
Pharmaceutical-grade plant-derived CBD oral solution was gradually titrated by 2 to 5 mg/kg increments up to a maximum dose of 25 mg/kg/day.
Laboratory testing for hematologic, liver, kidney function and concomitant AED levels was performed at baseline, and after every 4 weeks of CBD therapy.
The patient was treated for over three years and remains on treatment currently.

seizures [7] = conditions: rabbit, in vivo; cited from earlier work
[8] = one patient, oral CBD up to 25 mg/kg/day

SMILES	seizure freedom (seizures [1])	control of seizures (seizures [2])	prevention of seizures (seizures [3])	solubility in water [4]	number of patients with marked reduction of seizures [5]	demeanour and developmental milestones (caregiver documented) ([6]; after 6 months of treatment)	reduction in overall seizure frequency ([6]; after 16 weeks of treatment, 25 mg/kg/day, one patient) [%]	side effects at maximum dose ([6]; after 16 weeks, 25 mg/kg/day)	side effect on titration ([6]; initial 12 week period, CBD titrated too quickly)	overall seizure frequency increase compared to baseline ([6]; initial 12 weeks of treatment, maximum dose of 25 mg/kg/day not reached, one patient) [%]	seizure severity ([6]; one patient)	reduction in Type C seizures (irregular breathing, cyanosis and clonic extremity movements) [6, 8] [%]	reduction in Type D seizures (most severe, asymmetric tonic seizures) [6, 8] [%]	effect on convulsions (seizures [7])
C=C(C)[C@@H]1CCC(C)=C[C@H]1c1c(O)cc(CCCCC)cc1O [CBD, Cannabidiol]	two of the four patients became seizure free	ineffective	able to prevent seizures	insoluble in water	4	more interactive and had attained new milestones including babbling, smiling, and fixing	12	without side effects	somnolence	13	clinically meaningful reduction in seizure severity	93	48	
CCCCCc1cc(O)c2c(c1)OC(C)(C)[C@@H]1CCC(C)=C[C@@H]21 [THC, Tetrahydrocannabinol]														pro-convulsant
